Test system: DCAF16 KO SU-DHL-4 cells
Assay: Inhibitory effect on cell viability using SU-DHL-4 DCAF16 knock out (KO) cell line (Test Example 6)
Type: cell-based, human
Details: for Activity Attenuation Ratio: (SU-DHL-4 DCAF16 KO IC50)/(SU-DHL-4 WT IC50); for IC50: DCAF16 KO SU-DHL-4 cells, 72 hours, Cell Counting Kit-8, 50% inhibition of cell viability
Summary of the method: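 SU-DHL-4 DLBCL cells carrying lentiviral Cas9 plus DCAF16-targeting sgRNA (three KO strains; non-targeting control strain), seeded 2000 cells/well, pre-cultured 18–25 h, then given 9-step compound dilutions (0.1% DMSO final) for 72 h at 37° C. Viability read by CCK-8 colorimetric assay.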

Compound | Activity Attenuation Ratio | IC50 (Homo sapiens) | IC50
CCC(=O)N1c2ccccc2[C@H](Nc2ccc(-c3cnn(CC(=O)Nc4ccc(C5=NCc6nnc(C)n6-c6sc(C)c(C)c65)cc4)c3)cc2)C[C@@H]1C [Compound 14a, 2-(4-(4-(((2S,4R)-2-Methyl-1-propionyl-1,2,3,4-tetrahydroquinolin-4-yl)amino)phenyl)-1H-pyrazol-1-yl)-N-(4-(2,3,9-trimethyl-6H-thieno[3,2-f][1,2,4]triazolo[4,3-a][1,4]diazepin-4-yl)phenyl)acetamide] | 228 | 4 nM | 
CCC(=O)N1c2ccccc2[C@H](Nc2ccc(NC(=O)COCC(=O)Nc3ccc(C4=NCc5nnc(C)n5-c5sc(C)c(C)c54)cc3)cc2)C[C@@H]1C [Compound 14d, N-(4-(((2S,4R)-2-Methyl-1-propionyl-1,2,3,4-tetrahydroquinolin-4-yl)amino)phenyl)-2-(2-oxo-2-((4-(2,3,9-trimethyl-6H-thieno[3,2-f][1,2,4]triazolo[4,3-a][1,4]diazepin-4-yl)phenyl)amino)ethoxy)acetamide] | 96 | 9.61 nM | 
Cc1sc2c(c1C)C(c1ccc(NC(=O)C#CCNC(=O)c3ccc(C4=NCc5nnc(C)n5-c5sc(C)c(C)c54)cc3)cc1)=NCc1nnc(C)n1-2 [Compound 14e, N-(4-Oxo-4-((4-(2,3,9-trimethyl-6H-thieno[3,2-f][1,2,4]triazolo[4,3-a][1,4]diazepin-4-yl)phenyl)amino)but-2-yn-1-yl)-4-(2,3,9-trimethyl-6H-thieno[3,2-f][1,2,4]triazolo[4,3-a][1,4]diazepin-4-yl)benzamide] | 332 | 68.3 nM | 
CCC(=O)N1c2ccccc2[C@H](Nc2ccc(NC(=O)CNC(=O)Nc3ccc(C4=NCc5nnc(C)n5-c5sc(C)c(C)c54)cc3)cc2)C[C@@H]1C [Compound 14f, N-(4-(((2S,4R)-2-Methyl-1-propionyl-1,2,3,4-tetrahydroquinolin-4-yl)amino)phenyl)-2-(3-(4-(2,3,9-trimethyl-6H-thieno[3,2-f][1,2,4]triazolo[4,3-a][1,4]diazepin-4-yl)phenyl)ureido)acetamide] | 22 | 2.95 nM | 
Cc1sc2c(c1C)C(c1ccc(C(=O)N3CCC(NC(=O)c4ccc(C5=N[C@@H](CC(=O)OC(C)(C)C)c6nnc(C)n6-c6sc(C)c(C)c65)cc4)CC3)cc1)=NCc1nnc(C)n1-2 [Compound 14p, tert-Butyl (S)-2-(2,3,9-trimethyl-4-(4-((1-(4-(2,3,9-trimethyl-6H-thieno[3,2-f][1,2,4]triazolo[4,3-a][1,4]diazepin-4-yl)benzoyl)piperidin-4-yl)carbamoyl)phenyl)-6H-thieno[3,2-f][1,2,4]triazolo[4,3-a][1,4]diazepin-6-yl)acetate] | 408 | 407 nM | 
CCC(=O)N1c2ccccc2[C@H](Nc2ccc(NC(=O)CCCC(=O)Nc3ccc(Cn4c(C(=O)OCCN(C)C)cc5c4CCCC5=O)cc3)cc2)C[C@@H]1C [Compound 15a, 2-(Dimethylamino)ethyl 1-(4-(5-((4-(((2S,4R)-2-methyl-1-propionyl-1,2,3,4-tetrahydroquinolin-4-yl)amino)phenyl)amino)-5-oxopentanamide)benzyl)-4-oxo-4,5,6,7-tetrahydro-1H-indole-2-carboxylate] | 225 |  | 63 nM
CCC(=O)N1c2ccccc2[C@H](Nc2ccc(-c3cnn(CCNC(=O)c4ccc(Cn5c(C(=O)OCCN(C)C)cc6c5CCCC6=O)cc4)c3)cc2)C[C@@H]1C [Compound 15d, 2-(Dimethylamino)ethyl 1-(4-((2-(4-(4-(((2S,4R)-2-methyl-1-propionyl-1,2,3,4-tetrahydroquinolin-4-yl)amino)phenyl)-1H-pyrazol-1-yl)ethyl)carbamoyl)benzyl)-4-oxo-4,5,6,7-tetrahydro-1H-indole-2-carboxylate] | 7994 | 858 nM | 
CCC(=O)N1c2ccccc2[C@H](Nc2ccc(-n3cc(CNC(=O)c4ccc(Cn5c(CC)cc6c5CCCC6=O)cc4)nn3)cc2)C[C@@H]1C [Compound 15f, 4-((2-Ethyl-4-oxo-4,5,6,7-tetrahydro-1H-indol-1-yl)methyl)-N-((1-(4-(((2S,4R)-2-methyl-1-propionyl-1,2,3,4-tetrahydroquinolin-4-yl)amino)phenyl)-1H-1,2,3-triazol-4-yl)methyl)benzamide] | 902 | 28.3 nM | 
CCC(=O)N1c2ccccc2[C@H](Nc2ccc(NC(=O)CCCC(=O)Nc3cccc(Oc4ccc(NS(=O)(=O)CC)cc4-c4cn(C)c(=O)cc4OC)c3)cc2)C[C@@H]1C [Compound 16j, N^1-(3-(4-(Ethylsulfonamide)-2-(4-methoxy-1-methyl-6-oxo-1,6-dihydropyridin-3-yl)phenoxy)phenyl)-N5-(4-(((2S,4R)-2-methyl-1-propionyl-1,2,3,4-tetrahydroquinolin-4-yl)amino)phenyl)glutaramide] | 213 |  | 106 nM
CCC(=O)N1c2ccccc2[C@H](Nc2ccc(NC(=O)CCCC(=O)Nc3cccc(Oc4ccccc4-c4cn(C)c(=O)cc4OC)c3)cc2)C[C@@H]1C [Compound 16m, N^1-(3-(2-(4-Methoxy-1-methyl-6-oxo-1,6-dihydropyridin-3-yl)phenoxy)phenyl)-N5-(4-(((2S,4R)-2-methyl-1-propionyl-1,2,3,4-tetrahydroquinolin-4-yl)amino)phenyl)glutaramide] | 338 | 208 nM | 
CCC(=O)N1c2ccccc2[C@H](Nc2ccc(NC(=O)CCCC(=O)Nc3ccc(C(=O)N4CCC(=O)Nc5ccccc54)cc3)cc2)C[C@@H]1C [Compound 16o, N^1-(4-(((2S,4R)-2-Methyl-1-propionyl-1,2,3,4-tetrahydroquinolin-4-yl)amino)phenyl)-N5-(4-(4-oxo-2,3,4,5-tetra hydro-1H-benzo[b][1,4]diazepine-1-carbonyl)phenyl)glutaramide] | 96 | 2400 nM | 
CCC(=O)N1c2ccccc2[C@H](Nc2ccc(NC(=O)CCCC(=O)NC3CCC(Cn4cc(-c5c(C)noc5C)ccc4=O)CC3)cc2)C[C@@H]1C (stereo partly drawn) [Compound 16p, N^1-((1r,4r)-4-((5-(3,5-Dimethylisoxazol-4-yl)-2-oxopyridin-1(2H)-yl)methyl)cyclohexyl)-N5-(4-(((2S,4R)-2-methyl-1-propionyl-1,2,3,4-tetrahydroquinolin-4-yl)amino)phenyl)glutaramide] | 3390 |  | 925 nM
CCC(=O)N1c2ccccc2[C@H](Nc2ccc(NC(=O)CCCC(=O)Nc3ccc(Cn4cc(-c5c(C)noc5C)ccc4=O)cc3)cc2)C[C@@H]1C [Compound 17a, N^1-(4-((5-(3,5-Dimethylisoxazol-4-yl)-2-oxopyridin-1(2H)-yl)methyl)phenyl)-N5-(4-(((2S,4R)-2-methyl-1-propionyl-1,2,3,4-tetrahydroquinolin-4-yl)amino)phenyl)glutaramide] | 1895 | 182 nM | 
CCNC(=O)C[C@@H]1N=C(c2ccc(SCCCCSc3ccc(C4=N[C@@H](CC(=O)NCC)c5nnc(C)n5-c5ccc(OC)cc54)cc3)cc2)c2cc(OC)ccc2-n2c(C)nnc21 [compound 1, 2,2′-((4S,4'S)-6,6′-((butane-1,4-diylbis(sulfanediyl))bis(4,1-phenylene))bis(8-methoxy-1-methyl-4H-benzo[f][1,2,4]triazolo[4,3-a][1,4]diazepine-6,4-diyl))bis(N-ethylacetamide), reference compound] | 0.23 |  | 49.2 nM
Cc1sc2c(c1C)C(c1ccc(Cl)cc1)=N[C@@H](CC(=O)NCCOCCOCCOCCOCCOCCOCCOCCNC(=O)C[C@@H]1N=C(c3ccc(Cl)cc3)c3c(sc(C)c3C)-n3c(C)nnc31)c1nnc(C)n1-2 [compound 2, reference compound] | 0.32 |  | 75.7 nM

Source: patent US20220378923A1, “BET DEGRADER” (KYOWA KIRIN CO., LTD., priority 2019, published 2022)
